According to ChEMBL document CHEMBL1201862, “PubChem BioAssay data set” (2004):
Several values for one entry are separate records, joined by “and”; a condition that tells them apart may be missing. Identical values can stand only once.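 All cell lines were grown in 96-well plates and treated with compound for 48 hours. The concentration for 50% growth inhibition is given as GI50.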 Activity calls are given as the source filed them. No stated cut-off is given here; in the data, active = GI50 up to about 1.1 µM and inactive = higher. Peptide text beside a SMILES is read from it. * marks the point of attachment. Boc = CC(C)(C)OC(=O)*; OBn = c1ccc(CO*)cc1; Bn = c1ccc(C*)cc1

Key:
Experiment in all cases: NCI tumour cell line growth inhibition, 48 h
786-0 = system: 786-0
NCI-H226 = system: NCI-H226
SNB-19 = system: SNB-19
MOLT-4 = system: MOLT-4
OVCAR-3 = system: OVCAR-3
SF-539 = system: SF-539
M14 = system: M14
SK-MEL-5 = system: SK-MEL-5
RPMI-8226 = system: RPMI-8226
OVCAR-5 = system: OVCAR-5
K562 = system: K562
HOP-62 = system: HOP-62
EKVX = system: EKVX
SK-OV-3 = system: SK-OV-3
KM12 = system: KM12
A549 = system: A549
RXF 393 = system: RXF 393
NCI/ADR-RES = system: NCI/ADR-RES
U-251 = system: U-251
MCF7 = system: MCF7

Measured: GI50

CC12CCC(CC(=O)/C1=C(/Br)I)C2(C)C (centres undefined)
inactive: 786-0 16.1 µM | NCI-H226 13.8 µM | SNB-19 15.3 µM | MOLT-4 7.18 µM | OVCAR-3 13.6 µM | SF-539 15.7 µM | M14 14.4 µM | SK-MEL-5 11.4 µM | RPMI-8226 6.25 µM | OVCAR-5 2.02 µM | K562 11.2 µM | HOP-62 17.9 µM | EKVX 19.5 µM | SK-OV-3 20.7 µM | KM12 17.9 µM | A549 14.6 µM | RXF 393 4.6 µM | NCI/ADR-RES 15.3 µM

COc1cccc(C2c3cc4c(cc3OC(NNc3ccccc3)C2C)OCO4)c1O (centres undefined)
inactive: 786-0 2.88 µM | NCI-H226 14.5 µM | SNB-19 12.8 µM | MOLT-4 4.17 µM | OVCAR-3 2.71 µM | SF-539 3.18 µM | M14 2.92 µM | SK-MEL-5 6.21 µM | RPMI-8226 4.18 µM | OVCAR-5 9.38 µM | K562 2.24 µM | HOP-62 2.51 µM | EKVX 4.88 µM | SK-OV-3 21.9 µM | U-251 5.61 µM | MCF7 4.67 µM | KM12 2.38 µM | A549 3.65 µM | RXF 393 12.9 µM

O=C1OCC(O)=C1C(c1ccc(Cl)cc1)c1cc2c(cc1O)OCO2 (centres undefined)
inactive: 786-0 > 100 µM | NCI-H226 > 100 µM | SNB-19 > 100 µM | MOLT-4 > 100 µM | OVCAR-3 > 100 µM | SF-539 > 100 µM | M14 > 100 µM | SK-MEL-5 > 100 µM | OVCAR-5 > 100 µM | K562 > 100 µM | HOP-62 > 100 µM | EKVX > 100 µM | SK-OV-3 > 100 µM | MCF7 > 100 µM | KM12 > 100 µM | A549 > 100 µM | RXF 393 > 100 µM | NCI/ADR-RES > 100 µM

O=P1(C(O)c2ccccc2)N(Cc2ccccc2)[C@@H]2CCCC[C@H]2N1Cc1ccccc1 (some centres undefined)
inactive: 786-0 20.8 µM | NCI-H226 24.8 µM | SNB-19 56.2 µM | MOLT-4 19.6 µM | OVCAR-3 31.2 µM | SF-539 21.5 µM | M14 24.8 µM | SK-MEL-5 30.3 µM | OVCAR-5 24.8 µM | K562 53.5 µM | HOP-62 40.8 µM | EKVX 30.5 µM | SK-OV-3 58.2 µM | U-251 31.3 µM | MCF7 34.6 µM | KM12 37.3 µM | A549 28.8 µM | RXF 393 31.4 µM | NCI/ADR-RES 26.3 µM

N#CC(c1ccccc1)N(CCCCCCN(C(=O)c1ccccc1)C(C#N)c1ccccc1)C(=O)c1ccccc1 (centres undefined)
inactive: 786-0 33.7 µM | NCI-H226 28.6 µM | SNB-19 44.2 µM | MOLT-4 34.4 µM | OVCAR-3 39 µM | SF-539 41.5 µM | M14 41.2 µM | SK-MEL-5 17.9 µM | OVCAR-5 > 100 µM | K562 35.2 µM | EKVX 50.4 µM | SK-OV-3 41.4 µM | U-251 52.6 µM | MCF7 28.1 µM | KM12 38.5 µM | A549 40.7 µM | RXF 393 52.1 µM | NCI/ADR-RES 16 µM

CN(C)CCCNC1=C(Cl)C(=O)c2c(O)ccc(O)c2C1=O
inactive: 786-0 1.36 µM | NCI-H226 > 10 µM | SNB-19 1.94 µM | MOLT-4 2.58 µM | OVCAR-3 2.24 µM | SF-539 1.69 µM | M14 1.51 µM | SK-MEL-5 1.5 µM | OVCAR-5 1.59 µM | K562 3.61 µM | HOP-62 2.61 µM | EKVX 3.37 µM | SK-OV-3 > 10 µM | U-251 1.74 µM | MCF7 1.55 µM | KM12 2.99 µM | A549 1.66 µM | NCI/ADR-RES 2.44 µM

CCOc1ccc2nc3nc(O)nc(C)c3c(NC(C)(CO)CO)c2c1
inactive: 786-0 > 100 µM | NCI-H226 > 100 µM | SNB-19 > 100 µM | MOLT-4 > 100 µM | OVCAR-3 > 100 µM | SF-539 > 100 µM | M14 > 100 µM | SK-MEL-5 > 100 µM | OVCAR-5 > 100 µM | K562 > 100 µM | HOP-62 > 100 µM | EKVX > 100 µM | SK-OV-3 > 100 µM | U-251 > 100 µM | MCF7 4.08 µM | KM12 > 100 µM | A549 > 100 µM | RXF 393 > 100 µM | NCI/ADR-RES > 100 µM

C=C[C@@]1(C)CC(=O)[C@]2(O)[C@@]3(C)[C@@H](OC(C)=O)CCC(C)(C)[C@@H]3[C@H](OC(C)=O)[C@H](OC(C)=O)[C@@]2(C)O1
inactive: 786-0 > 100 µM | NCI-H226 > 100 µM | SNB-19 > 100 µM | MOLT-4 51.4 µM | OVCAR-3 > 100 µM | SF-539 > 100 µM | M14 > 100 µM | OVCAR-5 > 100 µM | K562 > 100 µM | HOP-62 > 100 µM | EKVX > 100 µM | SK-OV-3 > 100 µM | U-251 > 100 µM | MCF7 > 100 µM | KM12 36.1 µM | A549 > 100 µM | NCI/ADR-RES > 100 µM

CC1OC(OC2C(OC(=O)[C@]34CCC(C)(C)C[C@H]3C3=CC[C@@H]5[C@@]6(C)CC[C@H](OC7OC(C(=O)O)C(O)C(O)C7O)C(C)(C)[C@@H]6CC[C@@]5(C)[C@]3(C)CC4)OCC(O)C2O)C(O)C(O)C1OC1OCC(O)C(O)C1O (some centres undefined)
inactive: 786-0 49.3 µM and 65.5 µM | NCI-H226 43.6 µM and 43.9 µM | OVCAR-3 > 100 µM | M14 17.5 µM and 19.2 µM | OVCAR-5 48.2 µM and 31 µM | EKVX 22.3 µM and 30.1 µM | SK-OV-3 > 100 µM and 82.8 µM | U-251 39.3 µM and 75.2 µM | MCF7 50.1 µM and 41.5 µM | A549 35.2 µM and 30.6 µM | RXF 393 > 100 µM and 70.1 µM | NCI/ADR-RES 93.5 µM

CC(C)CC(NC(=O)C(CCC(=O)OCc1ccccc1)NC(=O)OC(C)(C)C)C(=O)NC(COCc1ccccc1)C(=O)NC(Cc1ccccc1)C(=O)O (centres undefined) (Boc-E(OBn)LS(Bn)F-OH; configuration not given here)
inactive: 786-0 > 100 µM | NCI-H226 > 100 µM | SNB-19 > 100 µM | MOLT-4 > 100 µM | M14 > 100 µM | SK-MEL-5 > 100 µM | RPMI-8226 > 100 µM | OVCAR-5 > 100 µM | K562 > 100 µM | HOP-62 > 100 µM | EKVX > 100 µM | U-251 > 100 µM | MCF7 > 100 µM | KM12 > 100 µM | A549 > 100 µM | RXF 393 > 100 µM
